Tests used:
[1] = target: Mitogen-activated protein kinase 1 (Homo sapiens, UniProt P28482); test: DRUGMATRIX: Protein Serine/Threonine Kinase, ERK2 enzyme inhibition (substrate: Myelin Basic Protein); design: species or system Escherichia coli; conditions: Not Active = under 50% inhibition at 10 µM
[2] = DRUGMATRIX: Platelet-Derived Growth Factor (PDGF) radioligand binding (ligand: [125I] PDGF); type: cell-based; conditions: nih3t3; Not Active = under 50% inhibition at 10 µM
Cytochrome P450 2C19 = Cytochrome P450 2C19 (Homo sapiens, UniProt P33261); conditions: bti-tn-5b1-4; also: in other assays of this panel Not Active means under 50% inhibition at 10 µM
Sequence of Cytochrome P450 2C19 (P33261 whole entry): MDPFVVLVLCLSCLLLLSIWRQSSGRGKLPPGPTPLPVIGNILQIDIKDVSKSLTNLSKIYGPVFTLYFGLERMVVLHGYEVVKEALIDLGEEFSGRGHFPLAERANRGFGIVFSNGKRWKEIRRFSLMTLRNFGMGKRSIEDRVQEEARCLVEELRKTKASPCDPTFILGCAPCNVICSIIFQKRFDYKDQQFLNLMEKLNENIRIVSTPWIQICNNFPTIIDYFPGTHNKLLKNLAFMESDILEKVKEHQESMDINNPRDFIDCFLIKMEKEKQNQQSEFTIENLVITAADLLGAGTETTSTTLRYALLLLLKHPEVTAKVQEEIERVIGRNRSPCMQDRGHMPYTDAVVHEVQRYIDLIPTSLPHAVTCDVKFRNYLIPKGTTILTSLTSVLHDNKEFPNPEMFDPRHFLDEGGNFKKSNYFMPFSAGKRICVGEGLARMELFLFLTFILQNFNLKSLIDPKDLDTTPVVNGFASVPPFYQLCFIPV

[3] = DRUGMATRIX: beta-Lactamase enzyme inhibition (substrate: Nitrocefin); design: species or system Bacillus cereus; conditions: Not Active = under 50% inhibition at 10 µM
[4] = target: T1, Receptor-type tyrosine-protein phosphatase C (Homo sapiens, UniProt P08575); design: species or system Escherichia coli;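 also: inhibition of CD45 enzyme activity measured using DiFMUP as substrate; in other assays of this panel Not Active means under 50% inhibition at 10 µM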
T1 sequence (P08575 whole entry): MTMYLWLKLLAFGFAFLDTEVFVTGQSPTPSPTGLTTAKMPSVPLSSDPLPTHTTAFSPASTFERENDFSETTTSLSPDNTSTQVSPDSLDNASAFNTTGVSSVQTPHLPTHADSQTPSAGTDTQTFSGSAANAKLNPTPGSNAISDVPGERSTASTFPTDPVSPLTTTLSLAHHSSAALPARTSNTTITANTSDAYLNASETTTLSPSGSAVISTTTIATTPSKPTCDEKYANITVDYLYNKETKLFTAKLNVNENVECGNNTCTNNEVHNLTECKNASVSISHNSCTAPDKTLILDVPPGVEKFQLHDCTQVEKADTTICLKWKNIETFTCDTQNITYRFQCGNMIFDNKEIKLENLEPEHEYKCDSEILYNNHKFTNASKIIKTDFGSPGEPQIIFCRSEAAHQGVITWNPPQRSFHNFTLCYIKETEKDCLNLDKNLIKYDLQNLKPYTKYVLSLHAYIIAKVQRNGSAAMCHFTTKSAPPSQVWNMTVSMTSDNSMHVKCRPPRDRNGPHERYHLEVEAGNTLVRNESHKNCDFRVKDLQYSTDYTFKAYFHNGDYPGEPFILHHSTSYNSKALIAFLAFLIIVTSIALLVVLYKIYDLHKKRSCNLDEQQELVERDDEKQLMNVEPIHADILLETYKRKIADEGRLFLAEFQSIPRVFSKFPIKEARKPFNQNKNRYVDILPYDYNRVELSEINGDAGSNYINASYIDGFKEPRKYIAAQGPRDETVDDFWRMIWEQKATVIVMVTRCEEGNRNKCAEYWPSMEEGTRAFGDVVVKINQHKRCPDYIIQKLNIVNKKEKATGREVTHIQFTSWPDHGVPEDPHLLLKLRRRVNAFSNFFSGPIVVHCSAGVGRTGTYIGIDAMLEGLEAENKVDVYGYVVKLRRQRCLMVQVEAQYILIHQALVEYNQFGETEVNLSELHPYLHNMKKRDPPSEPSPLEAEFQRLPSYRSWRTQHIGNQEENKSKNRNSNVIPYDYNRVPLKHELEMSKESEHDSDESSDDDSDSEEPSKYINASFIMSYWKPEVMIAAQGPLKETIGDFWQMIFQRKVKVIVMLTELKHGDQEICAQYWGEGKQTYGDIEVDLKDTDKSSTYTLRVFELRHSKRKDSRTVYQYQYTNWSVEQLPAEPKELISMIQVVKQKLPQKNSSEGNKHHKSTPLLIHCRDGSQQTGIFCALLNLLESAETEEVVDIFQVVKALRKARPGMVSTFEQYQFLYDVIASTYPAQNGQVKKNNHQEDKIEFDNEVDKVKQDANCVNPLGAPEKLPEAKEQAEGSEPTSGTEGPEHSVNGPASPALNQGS

[5] = target: T2, Vasoactive intestinal polypeptide receptor 1 (Homo sapiens, UniProt P32241); type: cell membranes, Membrane; conditions: ht-29; also: in other assays of this panel Not Active means under 50% inhibition at 10 µM
T2 sequence (P32241 whole entry): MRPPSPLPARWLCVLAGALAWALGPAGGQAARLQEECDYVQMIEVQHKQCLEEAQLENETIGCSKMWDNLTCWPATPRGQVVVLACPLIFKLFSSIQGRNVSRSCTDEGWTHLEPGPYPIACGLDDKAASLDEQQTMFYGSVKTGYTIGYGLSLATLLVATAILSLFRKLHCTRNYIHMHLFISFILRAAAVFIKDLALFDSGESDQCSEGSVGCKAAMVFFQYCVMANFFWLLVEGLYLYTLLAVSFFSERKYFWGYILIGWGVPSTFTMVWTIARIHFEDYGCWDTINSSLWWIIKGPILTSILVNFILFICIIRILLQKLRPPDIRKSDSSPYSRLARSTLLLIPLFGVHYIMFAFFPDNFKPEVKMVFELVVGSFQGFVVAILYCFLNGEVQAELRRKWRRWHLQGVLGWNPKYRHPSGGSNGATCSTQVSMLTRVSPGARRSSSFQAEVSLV

[6] = DRUGMATRIX: ATPase, Na+/K+ enzyme inhibition (substrate: ATP); type: tissue-based, Sus scrofa, Heart; conditions: Not Active = under 50% inhibition at 10 µM
[7] = target: Beta-3 adrenergic receptor (Homo sapiens, UniProt P13945); test: DRUGMATRIX: Adrenergic beta3 radioligand binding (ligand: [125I] Cyanopindolol); type: cell membranes, HEK293, Membrane; conditions: Not Active = under 50% inhibition at 10 µM; for Ki: read-out: Ki
Sequence of Beta-3 adrenergic receptor (P13945 whole entry): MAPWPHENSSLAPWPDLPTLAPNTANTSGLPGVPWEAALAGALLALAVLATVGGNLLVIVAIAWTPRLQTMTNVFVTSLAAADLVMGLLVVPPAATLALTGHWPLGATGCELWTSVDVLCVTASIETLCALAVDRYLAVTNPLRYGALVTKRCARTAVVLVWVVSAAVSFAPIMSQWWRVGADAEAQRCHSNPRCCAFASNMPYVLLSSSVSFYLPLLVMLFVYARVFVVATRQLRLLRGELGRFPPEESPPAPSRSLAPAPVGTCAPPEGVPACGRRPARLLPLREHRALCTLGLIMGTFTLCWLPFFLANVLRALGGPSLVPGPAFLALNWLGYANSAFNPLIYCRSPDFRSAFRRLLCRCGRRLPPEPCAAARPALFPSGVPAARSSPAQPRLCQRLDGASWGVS

Sequence of Mitogen-activated protein kinase 1 (P28482 whole entry): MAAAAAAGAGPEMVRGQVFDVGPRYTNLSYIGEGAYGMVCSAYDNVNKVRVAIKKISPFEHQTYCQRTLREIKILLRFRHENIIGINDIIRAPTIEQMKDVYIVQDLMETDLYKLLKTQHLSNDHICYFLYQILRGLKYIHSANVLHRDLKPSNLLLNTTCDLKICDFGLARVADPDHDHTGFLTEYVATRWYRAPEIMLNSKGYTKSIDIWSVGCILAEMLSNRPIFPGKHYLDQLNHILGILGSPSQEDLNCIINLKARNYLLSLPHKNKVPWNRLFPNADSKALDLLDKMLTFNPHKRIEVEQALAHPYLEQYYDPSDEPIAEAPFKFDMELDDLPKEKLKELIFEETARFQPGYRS

SMILES	IC50 [1]	IC50 [2]	Ki [2]	IC50 (Cytochrome P450 2C19)	Ki (Cytochrome P450 2C19)	IC50 [3]	Ki [3]	IC50 [4]	IC50 [5]	IC50 [6]	Ki [6]	IC50 ([7]; hek293)	IC50 ([7]; read-out: IC50)	Ki [7]
CCOC(N)=O	Not Active	Not Active	Not Active	Not Active	Not Active	Not Active	Not Active	Not Active	Not Active	Not Active	Not Active	Not Active	–	–
COc1ccc(CN2CCNCC2)c(OC)c1OC [TRIMETAZIDINE]	Not Active	Not Active	Not Active	–	–	Not Active	Not Active	Not Active	Not Active	Not Active	Not Active	Not Active	–	–
CC(=O)O[C@H]1C[C@@H]2CC[C@@H]3[C@H](CC[C@@]4(C)[C@H]3C[C@H]([N+]3(C)CCCCC3)[C@@H]4OC(C)=O)[C@@]2(C)C[C@@H]1N1CCCCC1.[Br-] [VECURONIUM BROMIDE]	Not Active	Not Active	Not Active	Not Active	Not Active	Not Active	Not Active	Not Active	Not Active	Not Active	Not Active	Not Active	–	–
C[C@@H]1C[C@H]2[C@@H]3CCC4=CC(=O)C=C[C@]4(C)C3=CC[C@]2(C)[C@H]1C(=O)CN1CCN(c2cc(N3CCCC3)nc(N3CCCC3)n2)CC1 [TIRILAZAD]	Not Active	Not Active	Not Active	Not Active	Not Active	Not Active	Not Active	Not Active	Not Active	Not Active	Not Active	Not Active	–	–
CC(C)OC(=O)C(C)(C)Oc1ccc(C(=O)c2ccc(Cl)cc2)cc1 [FENOFIBRATE]	Not Active	–	–	Not Active	Not Active	–	–	Not Active	Not Active	–	–	–	124 µM	93 µM
C[C@@H](O)[C@H]1C(=O)N2C(C(=O)O)=C(S[C@@H]3CN[C@H](C(=O)N(C)C)C3)[C@H](C)[C@H]12 [MEROPENEM]	Not Active	Not Active	Not Active	Not Active	Not Active	Not Active	Not Active	Not Active	Not Active	Not Active	Not Active	Not Active	–	–
CC[C@@H](CO)NC(=O)[C@@H]1C=C2c3cccc4c3c(cn4C)C[C@H]2N(C)C1 [METHYSERGIDE]	Not Active	–	–	Not Active	Not Active	–	–	Not Active	Not Active	–	–	Not Active	–	–
CC(C)(C)NC[C@H](O)COc1nsnc1N1CCOCC1 [TIMOLOL]	Not Active	Not Active	Not Active	Not Active	Not Active	Not Active	Not Active	Not Active	Not Active	Not Active	Not Active	–	0.452 µM	0.339 µM
CCN(CC)CC#CCOC(=O)C(O)(c1ccccc1)C1CCCCC1 (stereo unspecified) [OXYBUTYNIN]	Not Active	–	–	–	–	–	–	Not Active	Not Active	–	–	Not Active	–	–
O=c1[nH]c2ccccc2n1CCCN1CCC(n2c(=O)[nH]c3cc(Cl)ccc32)CC1 [DOMPERIDONE]	Not Active	–	–	–	–	–	–	Not Active	Not Active	–	–	Not Active	–	–
CC(=O)Nc1nnc(S(N)(=O)=O)s1 [ACETAZOLAMIDE]	Not Active	–	–	Not Active	Not Active	–	–	Not Active	Not Active	–	–	Not Active	–	–
CO[C@H]1C[C@@H]2CC[C@@H](C)[C@@](O)(O2)C(=O)C(=O)N2CCCC[C@H]2C(=O)O[C@H]([C@H](C)C[C@@H]2CC[C@@H](O)[C@H](OC)C2)CC(=O)[C@H](C)/C=C(\C)[C@@H](O)[C@@H](OC)C(=O)[C@H](C)C[C@H](C)/C=C/C=C/C=C/1C [SIROLIMUS]	Not Active	Not Active	Not Active	–	–	Not Active	Not Active	Not Active	Not Active	Not Active	Not Active	Not Active	–	–
OCCN1CCN(CCCN2c3ccccc3Sc3ccc(C(F)(F)F)cc32)CC1 [FLUPHENAZINE]	Not Active	–	–	–	–	–	–	Not Active	Not Active	–	–	–	29.5 µM	22.1 µM
CN[C@@H]1[C@H](O)[C@H](NC)[C@H]2O[C@@]3(O)C(=O)C[C@@H](C)O[C@H]3O[C@@H]2[C@H]1O [SPECTINOMYCIN]	Not Active	Not Active	Not Active	–	–	Not Active	Not Active	Not Active	Not Active	Not Active	Not Active	Not Active	–	–
C=C(C)[C@H]1Cc2c(ccc3c2O[C@@H]2COc4cc(OC)c(OC)cc4[C@@H]2C3=O)O1 [ROTENONE]	Not Active	Not Active	Not Active	–	–	Not Active	Not Active	Not Active	Not Active	Not Active	Not Active	Not Active	–	–
O=c1n(CCCN2CCN(c3cccc(Cl)c3)CC2)nc2ccccn12 [TRAZODONE]	Not Active	–	–	Not Active	Not Active	–	–	Not Active	Not Active	–	–	Not Active	–	–
Nc1nc2c(c(=O)[nH]1)N(C=O)C(CNc1ccc(C(=O)N[C@@H](CCC(=O)O)C(=O)O)cc1)CN2 (stereo partly specified) [LEUCOVORIN]	–	Not Active	Not Active	Not Active	Not Active	Not Active	Not Active	Not Active	Not Active	Not Active	Not Active	Not Active	–	–
CCS(=O)(=O)CCn1c([N+](=O)[O-])cnc1C [TINIDAZOLE]	Not Active	Not Active	Not Active	–	–	Not Active	Not Active	Not Active	Not Active	Not Active	Not Active	Not Active	–	–
C#CCN(C)[C@H](C)Cc1ccccc1 [SELEGILINE]	Not Active	Not Active	Not Active	–	–	Not Active	Not Active	Not Active	Not Active	Not Active	Not Active	Not Active	–	–
CN1C2CCCC1CC(NC(=O)c1nn(C)c3ccccc13)C2 (stereo unspecified) [GRANISETRON]	Not Active	–	–	Not Active	Not Active	–	–	Not Active	Not Active	–	–	Not Active	–	–

Source: ChEMBL document CHEMBL1909046, “DrugMatrix in vitro pharmacology data”
